{
  "source": "patent US11000511B2",
  "about": "“Chemical compounds as antibiotics” (priority 2017, dated 2021)",
  "key": {"[1]": {"target": "T1, purified LasB protein from P. aeruginosa (Pseudomonas aeruginosa, UniProt P14756)", "T1 construct": "purchased Merck or Charles River Laboratories", "T1 sequence (P14756 198-498)": "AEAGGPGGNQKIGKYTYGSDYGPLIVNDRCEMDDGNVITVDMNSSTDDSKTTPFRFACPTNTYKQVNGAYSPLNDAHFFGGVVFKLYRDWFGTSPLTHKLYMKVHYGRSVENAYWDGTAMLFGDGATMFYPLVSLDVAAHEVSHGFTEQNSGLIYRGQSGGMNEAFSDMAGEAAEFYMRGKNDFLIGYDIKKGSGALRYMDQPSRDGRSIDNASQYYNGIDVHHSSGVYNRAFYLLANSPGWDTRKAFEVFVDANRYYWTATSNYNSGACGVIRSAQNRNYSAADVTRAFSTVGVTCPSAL", "test": "Fluorometric assay to determine Ki (Assay 2)", "type": "biochemical", "experimental": "(§1) Experiments were therefore conducted (1) to measure the potency of inhibition of compounds of the invention against purified Pseudomonas aeruginosa LasB enzyme and also experiments were conducted (2) to measure the ability of compounds of the invention to inhibit LasB-catalysed elastin degradation. The first assay uses a commercial fluorescent synthetic peptide and purified LasB enzyme. The LasB hydrolysis kinetics are measured allowing the determination of the IC50 and Ki of the inhibitors; the second is a more physiological assay using dialysed Pseudomonas aeruginosa supernatant as source of enzyme, plus its natural substrate Elastin. It is an “end point assay” that determines the percentage of LasB inhibition by each compound for one particular time point and inhibitor concentration. Technical details are described below:\nThis assay uses commercially available substrate (Abz-Ala-Gly-Leu-Ala-p-Nitro-Benzyl-Amide (Ex: 340 nm, Em: 415 nm) from Peptide International) and purified LasB protein from P. aeruginosa (provided by Merck or Charles River Laboratories). It is performed to determine LasB elastase activity and assess compound inhibition in 96-well plate format. Some compounds of Formula (I) were assessed using the method of Assay 1 (described below). Other compounds of Formula (I) were assessed using the alternative but equivalent method of Assay 2 (described below).\nMethod: 10 to 140 ng/ml purified LasB is incubated with 250 μM Abz-Ala-Gly-Leu-Ala-p-Nitro-Benzyl-Amide in 50 mM Tris-HCl pH 7.4, 2.5 mM CaCl2), 0.01% of Triton X100 at 37° C. LasB activity (corresponding to fluorescence emission induced by substrate hydrolysis) is measured over 30 min at 37° C. with a fluorescence plate reader such as the Perkin Elmer Envision or similar. Different range of inhibitor concentrations are routinely assessed depending of inhibitor potency from 0.006 to 200 μM (Assay 1; 2-fold dilutions series) or from 0.0016 to 200 μM (Assay 2; 2-fold dilutions series) in order to determine IC50.\nThe equation used to calculate the Ki from IC50 is: Ki=IC50/(1+([S]/Km)) where [S]=250 μM and Km=214 μM."}, "[2]": {"target": "T2, LasB elastase activity in dialysed supernatant from P. aeruginosa strain PA01 (Pseudomonas aeruginosa, UniProt P14756)", "T2 construct": "uses as source of enzyme dialysed supernatant from P. aeruginosa; endogenous in cells; host or cells: P. aeruginosa strain PA01 culture supernatant, filtered and dialysed", "T2 sequence (P14756 198-498)": "as above", "test": "Elastin Congo Red assay to determine % inhibition (Assay 2)", "type": "biochemical", "conditions": "read-out: Elastin hydrolysis % inhibition @ 50/25 μM inhibitor concentration Assay 2", "experimental": "as §1\nThe Elastin assay uses as source of enzyme dialysed supernatant from P. aeruginosa and the elastin congo red as substrate. The natural LasB substrate, elastin, is complexed with the congo red dye (Elastin Congo Red, ECR). The elastolysis activity from the culture supernatant will degrade elastin and release the congo red dye into the supernatant. This red dye release can be measured with a spectrophotometer. Some compounds of Formula (I) were assessed using the method of Assay 1 (described below). Other compounds of Formula (I) were assessed using the alternative but equivalent method of Assay 2 (described below).\nMethod (Assay 2): To determine LasB elastase activity and assess compound inhibition, an overnight culture of P. aeruginosa strain PA01 is diluted in LB medium. After reaching an OD600 nm of 0.6, this culture is diluted and incubated for additional 18-24 h in a shaking incubator. Culture supernatants are recovered by centrifugation and filtrated through a […] filter. These supernatants are dialysed (filtration molecules <20 kDa) into a 50 mM Tris-HCl pH 7.4, 2.5 mM CaCl2 solution at 4° C. under agitation for 24 h. Supernatant dialysed is then mixed volume/volume with the ECR suspension (20 mg/mL of ECR in 100 mM Tris-HCl pH 7.4 buffer supplemented with 1 mM CaCl2) supplemented with TritonX 100 (final concentration of 0.01%) in presence of DMSO (positive control) and/or different concentrations of compound (routinely […]). As a negative control, the dialysed supernatant is replaced by Tris-HCl solution (50 mM Tris-HCl pH 7.4, 2.5 mM CaCl2). The mixed reaction is then incubated overnight in a 37° C. shaking incubator. The reaction supernatant is recovered by centrifugation and the release of congo-red is measured by its absorbance at 495 nm (OD495 nm).\nPercentage inhibition is determined using the following equation: ((OD495 nm value of positive control−OD495 nm value of negative control)−(OD495 nm value of treated supernatant−OD495 nm value of negative control))/(OD495 nm value of positive control−OD495 nm value of negative control)×100."}},
  "data": [
    {"smiles": "O=C(O)CC1(C(=O)NCc2nc3ccc(O)cc3s2)Cc2ccccc2C1", "note": "[Example 107, 2-[2-[(6-hydroxy-1,3-benzothiazol-2-yl)methylcarbamoyl]indan-2-yl]acetic acid]", "values": [
      {"measurement": "Ki", "setting": "[1]", "result": "< 300", "unit": "nM"},
      {"measurement": "inhibition at 50 µM", "setting": "[2]", "result": "> 60", "unit": "%"}
    ]},
    {"smiles": "CCOc1ccc2nc(CNC(=O)C3(CC(=O)O)Cc4ccccc4C3)sc2c1", "note": "[Example 108, 2-[2-[(6-ethoxy-1,3-benzothiazol-2-yl)methylcarbamoyl]indan-2-yl]acetic acid]", "values": [
      {"measurement": "Ki", "setting": "[1]", "result": "< 300", "unit": "nM"},
      {"measurement": "inhibition at 50 µM", "setting": "[2]", "result": "> 60", "unit": "%"}
    ]},
    {"smiles": "O=C(O)CC1(C(=O)NCc2nc3ccc(OCCO)cc3s2)Cc2ccccc2C1", "note": "[Example 109, 2-[2-[[6-(2-hydroxyethoxy)-1,3-benzothiazol-2-yl]methylcarbamoyl]indan-2-yl]acetic acid]", "values": [
      {"measurement": "Ki", "setting": "[1]", "result": "< 300", "unit": "nM"},
      {"measurement": "inhibition at 50 µM", "setting": "[2]", "result": "> 60", "unit": "%"}
    ]},
    {"smiles": "COc1cc2nc(CNC(=O)C3(CC(=O)O)Cc4ccccc4C3)sc2cc1OC", "note": "[Example 114, 2-[2-[(5,6-dimethoxy-1,3-benzothiazol-2-yl)methylcarbamoyl]indan-2-yl]acetic acid]", "values": [
      {"measurement": "Ki", "setting": "[1]", "result": "< 300", "unit": "nM"},
      {"measurement": "inhibition at 50 µM", "setting": "[2]", "result": "> 60", "unit": "%"}
    ]},
    {"smiles": "O=C(O)CC1(C(=O)NCc2nc3cc4c(cc3s2)OCO4)Cc2ccccc2C1", "note": "[Example 115, 2-[2-([1,3]dioxolo[4,5-f][1,3]benzothiazol-6-ylmethylcarbamoyl)indan-2-yl]acetic acid]", "values": [
      {"measurement": "Ki", "setting": "[1]", "result": "< 300", "unit": "nM"},
      {"measurement": "inhibition at 50 µM", "setting": "[2]", "result": "> 60", "unit": "%"}
    ]},
    {"smiles": "O=C(O)CC1(C(=O)NCc2nc3ccccc3s2)Cc2cc(F)c(F)cc2C1", "note": "[Example 120, 2-(2-((benzo[d]thiazol-2-ylmethyl)carbamoyl)-5,6-difluoro-2,3-dihydro-1H-inden-2-yl)acetic acid]", "values": [
      {"measurement": "Ki", "setting": "[1]", "result": "< 300", "unit": "nM"},
      {"measurement": "inhibition at 50 µM", "setting": "[2]", "result": "> 60", "unit": "%"}
    ]},
    {"smiles": "COc1cc2sc(CNC(=O)C3(CC(=O)O)Cc4ccccc4C3)nc2cc1N1CC(N(C)C)C1", "note": "[Example 122, 2-(2-(((5-(3-(dimethylamino)azetidin-1-yl)-6-methoxybenzo[d]thiazol-2-yl)methyl)carbamoyl)-2,3-dihydro-1H-inden-2-yl)acetic acid]", "values": [
      {"measurement": "Ki", "setting": "[1]", "result": "< 300", "unit": "nM"},
      {"measurement": "inhibition at 50 µM", "setting": "[2]", "result": "> 60", "unit": "%"}
    ]},
    {"smiles": "COc1cc2sc(CNC(=O)C3(CC(=O)O)Cc4ccccc4C3)nc2cc1N1CC([N+](C)(C)C)C1", "note": "[Example 123, 2-(2-(((6-methoxy-5-(3-(trimethylammonio)azetidin-1-yl)benzo[d]thiazol-2-yl)methyl)carbamoyl)-2,3-dihydro-1H-inden-2-yl)acetate]", "values": [
      {"measurement": "Ki", "setting": "[1]", "result": "< 300", "unit": "nM"},
      {"measurement": "inhibition at 50 µM", "setting": "[2]", "result": "> 60", "unit": "%"}
    ]},
    {"smiles": "COc1cc2sc(CNC(=O)C3(CC(=O)O)Cc4cc(F)c(F)cc4C3)nc2cc1OCCCN(C)C", "note": "[Example 124, 2-(2-(((5-(3-(dimethylamino)propoxy)-6-methoxybenzo[d]thiazol-2-yl)methyl)carbamoyl)-5,6-difluoro-2,3-dihydro-1H-inden-2-yl)acetic acid]", "values": [
      {"measurement": "Ki", "setting": "[1]", "result": "< 300", "unit": "nM"},
      {"measurement": "inhibition at 50 µM", "setting": "[2]", "result": "> 60", "unit": "%"}
    ]},
    {"smiles": "COc1cc2sc(CNC(=O)C3(CC(=O)O)Cc4cc(F)c(F)cc4C3)nc2cc1OCCC[N+](C)(C)C", "note": "[Example 125, 2-(5,6-difluoro-2-(((6-methoxy-5-(3-(trimethylammonio)propoxy)benzo[d]thiazol-2-yl)methyl)carbamoyl)-2,3-dihydro-1H-inden-2-yl)acetate]", "values": [
      {"measurement": "Ki", "setting": "[1]", "result": "< 300", "unit": "nM"},
      {"measurement": "inhibition at 50 µM", "setting": "[2]", "result": "> 60", "unit": "%"}
    ]},
    {"smiles": "COc1cc2sc(CNC(=O)C3(CC(=O)O)Cc4ccccc4C3)nc2cc1OCCN(C)C", "note": "[Example 126, 2-(2-(((5-(2-(dimethylamino)ethoxy)-6-methoxybenzo[d]thiazol-2-yl)methyl)carbamoyl)-2,3-dihydro-1H-inden-2-yl)acetic acid]", "values": [
      {"measurement": "Ki", "setting": "[1]", "result": "< 300", "unit": "nM"},
      {"measurement": "inhibition at 50 µM", "setting": "[2]", "result": "> 60", "unit": "%"}
    ]},
    {"smiles": "O=C(O)CC1(C(=O)NCc2nc3ccc(OC(F)(F)F)cc3s2)Cc2ccccc2C1", "note": "[Example 128, 2-[2-[[6-(trifluoromethoxy)-1,3-benzothiazol-2-yl]methylcarbamoyl]indan-2-yl]acetic acid]", "values": [
      {"measurement": "Ki", "setting": "[1]", "result": "< 300", "unit": "nM"},
      {"measurement": "inhibition at 50 µM", "setting": "[2]", "result": "> 60", "unit": "%"}
    ]}
  ]
}
